Measurements published in patent US20200181284A1, “EPIGENETIC INHIBITORS FOR SENSITIZING HEMATOLOGIC OR OTHER MALIGNANCIES TO GLUCOCORTICOID THERAPY” (UNIVERSITY OF SOUTHERN CALIFORNIA, priority 2017, published 2020).

Columns and labels:
GR-HP1γ interaction = test: Proximity ligation assay of GR and HP1γ in A549 cells; format: cell-based, human
Method: The experiments were performed following the manufacturer's instructions as previously described. Cells were grown on coverslips in 12-well plates, fixed in methanol for 2 min, and then washed twice in PBS. Firstly, the samples were saturated using the blocking solution, then different pairs of primary antibodies (HP1γ (Abcam ab10480) and GR (Santa Cruz sc-393232) in order to analyze HP1γ-GR, G9a (Sigma G6919) and HP1γ (Abcam ab56978) in order to analyze HP1γ-G9a interaction and HA-Tag (6E2) (Cell signaling #2367) and HP1γ (Abcam ab10480) in order to analyze HA- HP1γ interaction) were incubated with the fixed cells for 1 h at 37° C. […] Afterwards, the samples were mounted with Duolink II Mounting Medium containing Dapi in order to counterstain nuclei, and then analyzed on Zeiss Imager.Z1 fluorescence microscope. For each sample interactions were counted for 1000 cells using Image J software [46b].
The results as shown in FIGS. 18A-18E generally highlight that G9a and GLP methylation is required for HP1γ-G9a/GLP-GR ternary complex formation. […] The detected interactions are indicated by red dots. […] The number of interactions detected by Image J analysis is shown as the mean±SEM of three independent experiments. p-value was determined using a paired t-test. **p≤0.01. […] Whole-cell extracts were analyzed for G9a, GLP, GR, HP1γ and β-actin expression by immunoblot. […]

[1] = system: G9a and GLP coactivator function with GR; test: Transient MMTV-LUC luciferase reporter gene assay in CV-1 cells (GR, GRIP1, G9a or GLP); format: cell-based, human
Method: CV-1 cells were plated in hormone-free medium with 5% charcoal-stripped serum in 24-well plates the day before transfection. Cells were transfected using Lipofectamine 2000 (Invitrogen) with the indicated plasmids according to the manufacturer's protocol. After transfection, the cells were grown in hormone-free medium for 48 h in the presence or absence of 100 nM dex. Cell lysis and luciferase assays on cell extracts were performed with Promega luciferase assay kit. An aliquot of the cell lysate was reserved for immunoblot analysis of input samples. The results were normalized as indicated and presented as the mean±SEM of at least four independent experiments.
The results as shown in FIGS. 20A-20D generally highlight that G9a and GLP PTMs regulate their coactivator function. For FIG. 20A, CV-1 cells were transfected with MMTV-LUC reporter plasmid (200 ng) and plasmids encoding GR (1 ng), Grip1 (100 ng) and HA-labeled full length (FL) hG9a wild type or K185A or K185R mutants (150 or 400 ng) as indicated. Cells were grown with 100 nM dex or the equivalent amount of ethanol for 48 h and assayed for luciferase activity. Relative luciferase units are normalized to sample 3 and represent mean±SEM for eight independent experiments. p-value was calculated using a paired t-test. *p≤0.05, **p≤0.01. Whole-cell extracts were analyzed for G9a expression by immunoblot with anti-HA antibody. For FIG. 20B, transient reporter gene assays were performed as in A with HA-labeled hGLP WT or hGLP K205A (150 or 400 ng) as indicated. Relative luciferase units are normalized to sample 3 and represent mean±SEM for six independent experiments. p-value was calculated using a paired t-test. *p≤0.05. […] Relative luciferase units are normalized to sample 3 and represent mean±SEM for four independent experiments. p-value was calculated using a paired t-test. * * *p≤0.001. […] Relative luciferase units are normalized to sample 3 and represent mean±SEM for four independent experiments. p-value was calculated using a paired t-test. *p≤0.05. […]

## Clc1ccc(N/N=C(\c2ccccc2)c2ccccn2)nc1 [JIB-04, 5-chloro-N-[(E)-[phenyl(pyridin-2-yl)methylidene]amino]pyridin-2-amine]
GR-HP1γ interaction; A549 cells treated with dex and JIB-04
  dex-induced interaction between GR and HP1γ in PLA: enhanced
[1]; GR, GRIP1 and wild type G9a
  dex-induced expression of the reporter gene: enhanced
[1]; mutant G9a with the methylation site mutated from lysine to arginine
  dex-induced expression of the reporter gene: no effect

## COc1cc2c(NC3CCN(C4CCCCC4)CC3)nc(N3CCCN(C(C)C)CC3)nc2cc1OCCCN1CCCCC1 [UNC0646]
GR-HP1γ interaction; A549 cells, 2 μM UNC0646 24 h, 100 nM dex for the final 2 h
  GR-HP1γ interaction in PLA: strongly decreased

## COc1cc2c(Nc3ccc(NC(=O)c4ccccc4)cc3)ncnc2cc1OCCCN1CCOCC1 [ZM447439, N-[4-[[6-methoxy-7-(3-morpholin-4-ylpropoxy)quinazolin-4-yl]amino]phenyl]benzamide]
[1]; 100 nM dex and 2 μM ZM447439, 48 h
  coactivator function of G9a and GLP, in cooperation with GRIP1: significantly enhanced
